Consider 18 molecules from US11053226B2, “KRAS G12C inhibitors and methods of using the same” (Amgen Inc., priority 2018, dated 2021).

Each structure is given as a SMILES string.

One may read the IC50 as the midpoint of a concentration-inhibition curve.

GDP-bound KRAS protein (aa 1-169), containing both G12C and C118A amino acid substitutions, sequence (P01116 other isoform, or with tags, fused parts or gaps G12C/C118A): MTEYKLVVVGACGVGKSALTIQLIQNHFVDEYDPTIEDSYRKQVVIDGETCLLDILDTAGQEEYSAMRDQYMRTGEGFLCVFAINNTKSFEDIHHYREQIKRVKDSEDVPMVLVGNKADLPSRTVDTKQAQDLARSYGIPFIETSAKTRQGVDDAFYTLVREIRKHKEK

The target in one assay is GDP-bound KRAS protein (aa 1-169), containing both G12C and C118A amino acid substitutions (Homo sapiens (Human), UniProt P01116, C118A/G12C). The assay can be described thus: Coupled Nucleotide Exchange Assay. It is filed as biochemical. The settings on record: read-out: Coupled Exchange IC50 (2 h); 2 h compound pre-incubation. As for the experimental part: For compounds in Table 9, the following assay conditions were employed:
Coupled Nucleotide Exchange Assay:
The assay plates were then read on a PerkinElmer EnVision Multilabel Reader, using AlphaScreen® technology, and data were analyzed using a 4-parameter logistic model to calculate IC50 values.
On to `C=CC(=O)N1CC(NC(=O)Cn2c(C)c(-c3ccccc3OC)c3cc(Cl)ccc32)C1` [Example 125], for which the IC50 is 2.75 µM.
Same read-out and setting: next, `C=CC(=O)N1CC(NC(=O)Cn2cc(-c3c(C)ccc4cn[nH]c34)c3cc(Br)ccc32)C1` [Example 130]: 4.49 µM.
On the same count and under the same terms, next, `C=CC(=O)N1CC(NC(=O)C(C)(C)n2c(C)c(C(=O)N3CCc4c(cccc4OC)C3)c3cc(Cl)ccc32)C1` [Example 131]: 5.54 µM; `C=CC(=O)N1CC(NC(=O)Cn2cc(C3CC3)c3cc(Br)ccc32)C1` [Example 132]: 9.52 µM.
Same read-out and setting: next, `C=CC(=O)N1CC(NC(=O)Cn2c3c(c4cc(Br)ccc42)CC(c2ccccc2)CC3)C1` (centres unmarked) [Example 133]: 7.06 µM; `C=CC(=O)N1CC(NC(=O)Cn2c3c(c4cc([N+](=O)[O-])ccc42)CCCCC3)C1` [Example 135]: 4.25 µM; `C=CC(=O)N1CC(NC(=O)Cn2cc(CNCc3ccccc3)c3cc(Br)ccc32)C1` [Example 136]: 9.85 µM.
With `C=CC(=O)N1CC(NC(=O)Cn2cc(-c3ccc(F)cc3F)c3cc(Br)ccc32)C1` [Example 137], the IC50 came out at 6.9 µM.
In the case of `C=CC(=O)N1CC(NC(=O)Cn2c3c(c4cc(Br)ccc42)CN(C(=O)OCc2ccccc2)CC3)C1` [Example 141], the IC50 is 7.25 µM.
The same measure, in the same setting: next, `C=CC(=O)N1CC(NC(=O)Cn2cc(-c3c(C)ccc4[nH]ncc34)c3cc(Cl)ccc32)C1` [Example 142]: 3.71 µM; `C=CC(=O)N1CC(NC(=O)Cn2c3c(c4cc([N+](=O)[O-])ccc42)CCCC3)C1` [Example 143]: 4.53 µM.
Turning to `C=CC(=O)N1CC(NC(=O)Cn2cc(-c3c(O)cccc3F)c3cc(Cl)ccc32)C1` [Example 144], the IC50 was determined as 3.84 µM.
With `C=CC(=O)N1CC(NC(=O)Cn2cc(CN3CCc4ccccc4C3)c3cc(Br)ccc32)C1` [Example 145], the IC50 amounted to 5.7 µM.
Same read-out and setting: next, `C=CC(=O)N1CC(NC(=O)Cn2cc(C3CC3)c3ccc(-c4ccccc4Cl)cc32)C1` [Example 146]: 3.8 µM; `C=CC(=O)N1CC(NC(=O)Cn2c(C)c(-c3cccc4ncccc34)c3cc(Cl)ccc32)C1` [Example 147]: 2.6 µM.
Same read-out and setting: next, `COc1cccc2c1CCN(C(=O)c1cn(CC(=O)NC3CN(C(=O)/C=C/CN(C)C)C3)c3ccc(Br)cc13)C2` [Example 149]: 3.6 µM; `C=CC(=O)N1CC(NC(=O)Cn2cc(I)c3ccc(-c4ccccc4Cl)cc32)C1` [Example 150]: 2.92 µM.
The same measure, in the same setting: next, `C=CC(=O)N1CC(NC(=O)Cn2cc(-c3ccccc3OC)c3cc(Br)ccc32)C1` [Example 151]: 4.33 µM.

The assay is the same for the next values; noted with them: read-out: Coupled Exchange IC50 (20 h); 20 h compound pre-incubation.
Consider `C=CC(=O)N1CC(NC(=O)Cn2cc(-c3c(C)ccc4cn[nH]c34)c3cc(Br)ccc32)C1` [Example 130], for which the IC50 was determined as 1.02 µM.
In the case of `C=CC(=O)N1CC(NC(=O)C(C)(C)n2c(C)c(C(=O)N3CCc4c(cccc4OC)C3)c3cc(Cl)ccc32)C1` [Example 131], the IC50 was determined as 1.04 µM.
The same measure, in the same setting: next, `C=CC(=O)N1CC(NC(=O)Cn2cc(C3CC3)c3cc(Br)ccc32)C1` [Example 132]: 1.71 µM; `C=CC(=O)N1CC(NC(=O)Cn2c3c(c4cc(Br)ccc42)CC(c2ccccc2)CC3)C1` (centres unmarked) [Example 133]: 1.33 µM.
Same read-out and setting: next, `C=CC(=O)N1CC(NC(=O)Cn2c3c(c4cc([N+](=O)[O-])ccc42)CCCCC3)C1` [Example 135]: 0.63 µM; `C=CC(=O)N1CC(NC(=O)Cn2cc(CNCc3ccccc3)c3cc(Br)ccc32)C1` [Example 136]: 1.91 µM.
Consider `C=CC(=O)N1CC(NC(=O)Cn2cc(-c3ccc(F)cc3F)c3cc(Br)ccc32)C1` [Example 137], for which the IC50 was 1.13 µM.
Take `C=CC(=O)N1CC(NC(=O)Cn2c3c(c4cc(Br)ccc42)CN(C(=O)OCc2ccccc2)CC3)C1` [Example 141]: the IC50 came to 1.51 µM.
On the same count and under the same terms, next, `C=CC(=O)N1CC(NC(=O)Cn2cc(-c3c(C)ccc4[nH]ncc34)c3cc(Cl)ccc32)C1` [Example 142]: 0.83 µM; `C=CC(=O)N1CC(NC(=O)Cn2c3c(c4cc([N+](=O)[O-])ccc42)CCCC3)C1` [Example 143]: 0.85 µM; `C=CC(=O)N1CC(NC(=O)Cn2cc(-c3c(O)cccc3F)c3cc(Cl)ccc32)C1` [Example 144]: 0.75 µM.
The same measure, in the same setting: next, `C=CC(=O)N1CC(NC(=O)Cn2cc(CN3CCc4ccccc4C3)c3cc(Br)ccc32)C1` [Example 145]: 1.12 µM; `C=CC(=O)N1CC(NC(=O)Cn2cc(C3CC3)c3ccc(-c4ccccc4Cl)cc32)C1` [Example 146]: 0.74 µM.
The same measure, in the same setting: next, `C=CC(=O)N1CC(NC(=O)Cn2c(C)c(-c3cccc4ncccc34)c3cc(Cl)ccc32)C1` [Example 147]: 0.52 µM; `COc1cccc2c1CCN(C(=O)c1cn(CC(=O)NC3CN(C(=O)/C=C/CN(C)C)C3)c3ccc(Br)cc13)C2` [Example 149]: 0.68 µM.
Regarding `C=CC(=O)N1CC(NC(=O)Cn2cc(I)c3ccc(-c4ccccc4Cl)cc32)C1` [Example 150], the IC50 worked out at 0.59 µM.
For `C=CC(=O)N1CC(NC(=O)Cn2cc(-c3ccccc3OC)c3cc(Br)ccc32)C1` [Example 151], the IC50 stood at 0.92 µM.

The next assay has as its system Phosphorylation of ERK1/2 in MIA PaCa-2 cells. The assay can be described thus: Phospho-ERK1/2 MSD Assay. It is filed as cell-based. The settings on record: Homo sapiens, MIA PaCa-2, 4 h, read-out: pERK IC50 (4 h, MiaPaCa-2), 4 h compound treatment; MiaPaCa-2 cells.
Consider `COc1cccc2c1CCN(C(=O)c1cn(CC(=O)NC3CN(C(=O)/C=C/CN(C)C)C3)c3ccc(Br)cc13)C2` [Example 149], for which the IC50 was determined as 50.7 µM.

Staying with this assay, now noted: Homo sapiens, MIA PaCa-2, read-out: pERK IC50 (4 h); 4 h compound treatment; MiaPaCa-2 cells.
As to `C=CC(=O)N1CC(NC(=O)Cn2c(C)c(-c3ccccc3OC)c3cc(Cl)ccc32)C1` [Example 125], the IC50 came out at 33.6 µM.
The same measure, in the same setting: next, `C=CC(=O)N1CC(NC(=O)Cn2cc(-c3c(C)ccc4cn[nH]c34)c3cc(Br)ccc32)C1` [Example 130]: 37 µM; `C=CC(=O)N1CC(NC(=O)C(C)(C)n2c(C)c(C(=O)N3CCc4c(cccc4OC)C3)c3cc(Cl)ccc32)C1` [Example 131]: 37 µM; `C=CC(=O)N1CC(NC(=O)Cn2cc(C3CC3)c3cc(Br)ccc32)C1` [Example 132]: 37.9 µM.
With `C=CC(=O)N1CC(NC(=O)Cn2c3c(c4cc(Br)ccc42)CC(c2ccccc2)CC3)C1` (centres unmarked) [Example 133], the IC50 amounted to 37.9 µM.
On the same count and under the same terms, next, `C=CC(=O)N1CC(NC(=O)Cn2cc(CNCc3ccccc3)c3cc(Br)ccc32)C1` [Example 136]: 39.6 µM.
`C=CC(=O)N1CC(NC(=O)Cn2cc(-c3ccc(F)cc3F)c3cc(Br)ccc32)C1` [Example 137]: the IC50 stood at 40.4 µM.
Still for that read-out and setting: next, `C=CC(=O)N1CC(NC(=O)Cn2c3c(c4cc(Br)ccc42)CN(C(=O)OCc2ccccc2)CC3)C1` [Example 141]: 42.4 µM.
Still for that read-out and setting: next, `C=CC(=O)N1CC(NC(=O)Cn2cc(-c3c(C)ccc4[nH]ncc34)c3cc(Cl)ccc32)C1` [Example 142]: 44.1 µM; `C=CC(=O)N1CC(NC(=O)Cn2cc(-c3c(O)cccc3F)c3cc(Cl)ccc32)C1` [Example 144]: 46.8 µM; `C=CC(=O)N1CC(NC(=O)Cn2cc(CN3CCc4ccccc4C3)c3cc(Br)ccc32)C1` [Example 145]: 46.9 µM.
As for `C=CC(=O)N1CC(NC(=O)Cn2cc(C3CC3)c3ccc(-c4ccccc4Cl)cc32)C1` [Example 146], the IC50 was found to be 47.1 µM.
The same measure, in the same setting: next, `C=CC(=O)N1CC(NC(=O)Cn2c(C)c(-c3cccc4ncccc34)c3cc(Cl)ccc32)C1` [Example 147]: 49.6 µM; `C=CC(=O)N1CC(NC(=O)Cn2cc(I)c3ccc(-c4ccccc4Cl)cc32)C1` [Example 150]: 50.8 µM; `C=CC(=O)N1CC(NC(=O)Cn2cc(-c3ccccc3OC)c3cc(Br)ccc32)C1` [Example 151]: 51.2 µM.

Staying with this assay, now noted: read-out: pERK IC50 (4 h, MiaPaCa-2); 4 h compound treatment; MiaPaCa-2 cells.
`C=CC(=O)N1CC(NC(=O)Cn2c3c(c4cc([N+](=O)[O-])ccc42)CCCCC3)C1` [Example 135]: the half-inhibitory concentration (IC50) worked out at 38.7 µM.
For `C=CC(=O)N1CC(NC(=O)Cn2c3c(c4cc([N+](=O)[O-])ccc42)CCCC3)C1` [Example 143], the IC50 turned out to be 44.9 µM.

Another assay concerns Phosphorylation of ERK1/2 in A549 cells. The assay can be described thus: Phospho-ERK1/2 MSD Assay (A549). It is filed as cell-based. The settings on record: Homo sapiens, A549, 4 h, read-out: pERK IC50 (4 h, A549), 4 h compound treatment.
Consider `COc1cccc2c1CCN(C(=O)c1cn(CC(=O)NC3CN(C(=O)/C=C/CN(C)C)C3)c3ccc(Br)cc13)C2` [Example 149], for which the IC50 was greater than 100 µM.

Still in this assay, the particulars now being: Homo sapiens, read-out: pERK IC50 (4 h), 4 h compound treatment.
On to `C=CC(=O)N1CC(NC(=O)Cn2c(C)c(-c3ccccc3OC)c3cc(Cl)ccc32)C1` [Example 125], for which the IC50 is greater than 100 µM.
For `C=CC(=O)N1CC(NC(=O)Cn2cc(-c3c(C)ccc4cn[nH]c34)c3cc(Br)ccc32)C1` [Example 130], the IC50 turned out to be 50.1 µM.
The same measure, in the same setting: next, `C=CC(=O)N1CC(NC(=O)C(C)(C)n2c(C)c(C(=O)N3CCc4c(cccc4OC)C3)c3cc(Cl)ccc32)C1` [Example 131]: 50.6 µM; `C=CC(=O)N1CC(NC(=O)Cn2cc(C3CC3)c3cc(Br)ccc32)C1` [Example 132]: greater than 100 µM; `C=CC(=O)N1CC(NC(=O)Cn2c3c(c4cc(Br)ccc42)CC(c2ccccc2)CC3)C1` (centres unmarked) [Example 133]: greater than 100 µM.
Same read-out and setting: next, `C=CC(=O)N1CC(NC(=O)Cn2cc(CNCc3ccccc3)c3cc(Br)ccc32)C1` [Example 136]: 36.6 µM; `C=CC(=O)N1CC(NC(=O)Cn2cc(-c3ccc(F)cc3F)c3cc(Br)ccc32)C1` [Example 137]: 16.5 µM; `C=CC(=O)N1CC(NC(=O)Cn2c3c(c4cc(Br)ccc42)CN(C(=O)OCc2ccccc2)CC3)C1` [Example 141]: 19.3 µM.
The same measure, in the same setting: next, `C=CC(=O)N1CC(NC(=O)Cn2cc(-c3c(C)ccc4[nH]ncc34)c3cc(Cl)ccc32)C1` [Example 142]: greater than 100 µM; `C=CC(=O)N1CC(NC(=O)Cn2cc(-c3c(O)cccc3F)c3cc(Cl)ccc32)C1` [Example 144]: greater than 100 µM; `C=CC(=O)N1CC(NC(=O)Cn2cc(CN3CCc4ccccc4C3)c3cc(Br)ccc32)C1` [Example 145]: 50.9 µM.
Take `C=CC(=O)N1CC(NC(=O)Cn2cc(C3CC3)c3ccc(-c4ccccc4Cl)cc32)C1` [Example 146]: the IC50 came out at 74.2 µM.
On the same count and under the same terms, next, `C=CC(=O)N1CC(NC(=O)Cn2c(C)c(-c3cccc4ncccc34)c3cc(Cl)ccc32)C1` [Example 147]: greater than 100 µM; `C=CC(=O)N1CC(NC(=O)Cn2cc(I)c3ccc(-c4ccccc4Cl)cc32)C1` [Example 150]: greater than 100 µM; `C=CC(=O)N1CC(NC(=O)Cn2cc(-c3ccccc3OC)c3cc(Br)ccc32)C1` [Example 151]: 14.6 µM.

The same assay, now with this note: read-out: pERK IC50 (4 h, A549), 4 h compound treatment.
With `C=CC(=O)N1CC(NC(=O)Cn2c3c(c4cc([N+](=O)[O-])ccc42)CCCCC3)C1` [Example 135], the IC50 is greater than 100 µM.
The same measure, in the same setting: next, `C=CC(=O)N1CC(NC(=O)Cn2c3c(c4cc([N+](=O)[O-])ccc42)CCCC3)C1` [Example 143]: greater than 100 µM.
